Experimental findings from US8231916B2, “Use of a rice protein hydrolysate as pigmenting active principle” (Laboratoires Expanscience, priority 2006, dated 2012) are described below.

The test has as its system human cutaneous fibroblasts. As to the kind of experiment: Intracellular glutathione (GSH) in dermal fibroblasts irradiated with UVA. In kind it is cell-based. The note with it: 5 mM, 15 J/cm^2 UVA. How it is done:
Dermal fibroblasts were inoculated in 60 mm petri dishes. The cells were pre-treated for 18 hours with 5 mM rice peptides or N-acetyl-cysteine (NAC=reference antioxidant molecule) and then irradiated at a dose of 15 J/cm^2 UVA. After irradiation, the fibroblasts were incubated for an additional 3 h at 37° C.
At the end of the treatment, two series of samples were collected in order to evaluate: • a. Total quantity of proteins according to the Lowry method. • b. The ratio of intracellular glutathione by assay (commercial kit).

For the molecule `CC(=O)N[C@@H](CS)C(=O)O` [NAC, N-acetyl-cysteine], the “GSH (μmol/g proteins)” value amounted to 28.209 μmol/g proteins and the “GSH, % increase compared to irradiated control cells” value was determined as 29%. For the same molecule, under “18 hours pre-treatment”, the “GSH” value was found to be 21.10 µM.
